Laboratory results reported in patent US11976062B2, “Benzisoxazole compound” (OSAKA UNIVERSITY, priority 2018, dated 2024).

Target: T1, TRPC3 channel (Homo sapiens, UniProt Q13507)
T1 construct: expressed in transfected cells; host or cells: HEK293
T1 sequence (Q13507 1-921): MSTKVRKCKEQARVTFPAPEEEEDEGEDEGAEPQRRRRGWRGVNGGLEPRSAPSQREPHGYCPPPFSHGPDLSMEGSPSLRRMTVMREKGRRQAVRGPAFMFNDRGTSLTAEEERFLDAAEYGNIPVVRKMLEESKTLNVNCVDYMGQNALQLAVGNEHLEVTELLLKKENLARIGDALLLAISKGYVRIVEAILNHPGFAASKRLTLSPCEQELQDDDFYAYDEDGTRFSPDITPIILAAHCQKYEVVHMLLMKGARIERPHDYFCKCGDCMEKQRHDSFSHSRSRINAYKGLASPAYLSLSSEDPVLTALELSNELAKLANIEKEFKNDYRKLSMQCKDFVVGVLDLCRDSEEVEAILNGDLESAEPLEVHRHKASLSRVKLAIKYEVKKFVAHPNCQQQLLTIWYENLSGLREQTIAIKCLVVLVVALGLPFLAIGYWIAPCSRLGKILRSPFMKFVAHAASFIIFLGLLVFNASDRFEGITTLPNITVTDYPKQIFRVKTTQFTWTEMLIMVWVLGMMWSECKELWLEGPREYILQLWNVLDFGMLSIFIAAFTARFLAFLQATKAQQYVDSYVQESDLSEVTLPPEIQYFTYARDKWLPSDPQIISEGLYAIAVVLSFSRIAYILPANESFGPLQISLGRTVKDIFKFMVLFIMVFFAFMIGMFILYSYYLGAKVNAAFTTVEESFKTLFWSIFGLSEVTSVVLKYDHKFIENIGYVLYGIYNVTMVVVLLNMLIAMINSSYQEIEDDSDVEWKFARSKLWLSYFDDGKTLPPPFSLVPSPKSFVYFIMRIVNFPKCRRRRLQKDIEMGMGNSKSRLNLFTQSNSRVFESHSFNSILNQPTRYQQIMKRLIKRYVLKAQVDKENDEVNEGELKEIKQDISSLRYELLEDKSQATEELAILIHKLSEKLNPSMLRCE
Test: Calcium assay using HEK293 cells transiently expressing TRPC3 channel, carbachol activation (Fura-2)
Type: cell-based
Experimental: A TRPC6 gene was introduced into HEK293 cells (cells derived from human fetal kidney) by lipofection, and the TRPC6 channel was expressed on the cell membrane. Specifically, the plasmid DNA of TRPC6 (pCI-neo; Promega Corporation) was introduced into HEK293 cells using a lipofection reagent, and then cultured at 37° C. for 24 to 48 hours to express the TRPC6 channel on the cell membrane. In the same manner, HEK293 cells into which the TRPC3 gene was introduced were cultured, and the TRPC3 channel was expressed on the cell membrane.
The cultured cells were peeled off with trypsin and seeded on a cover glass again, followed by culturing the cells at 37° C. for 3 hours again. A Fura-2 AM calcium indicator was added to the medium, and the cells were cultured at 37° C. for 30 minutes to allow the cells to incorporate the indicator. For the extracellular solution, a Ca^2+-containing solution and a Ca^2+-free solution were prepared. • Ca^2+-containing solution: 2 mM CaCl2, 132 mM NaCl, 4 mM KCl, 1 mM MgCl2, 5 mM glucose, 5 mM HEPES (pH 7.4) • Ca^2+-free solution: 132 mM NaCl, 4 mM KCl, 1 mM MgCl2, 5 mM glucose, 5 mM HEPES (pH 7.4) […]

Ca2+ concentration in the cells reached after addition of carbachol (TRPC3, FIG. 2, from about 100 nM, control (DMSO) about 350 nM): about 180 nM
IC50 (TRPC3-expressing HEK293 cells, carbachol 100 μM, from concentration-response curves, read-out: IC50 for inhibition of the TRPC3 channel): 700 nM
SMILES: O=C(O)c1cnc(N2CCN(c3noc4cccc(C(F)(F)F)c34)CC2)c(Cl)c1 [Compound 011, 5-chloro-6-(4-(4-(trifluoromethyl)benzo[d]isoxazol-3-yl)piperazin-1-yl) nicotinic acid]
